According to patent US9233964B2, “Sulfamide piperazine derivatives as protein tyrosine kinase inhibitors and pharmaceutical use therof” (LEO PHARMA A/S, priority 2011, dated 2016):
pEC50: −log10 of the molar value.

Experiments:
Type in all cases: biochemical
[1] = target: T1, TYK2 (Homo sapiens, UniProt P29597); experiment: JAK kinase assay (HTRF, phosphorylation of synthetic peptide), TYK2; settings: catalytic domain, ATP at Km (13 μM); read-out: TYK2 kinase inhibitory activity (EC50)
T1 construct: JAK1 (aa 850-1154) and TYK2 (aa 871-1187) are expressed with an N-terminally fused GST-tag; GST (N); purchased Carna Biosciences, Inc; host or cells: baculovirus expression system
T1 sequence (P29597 871-1187): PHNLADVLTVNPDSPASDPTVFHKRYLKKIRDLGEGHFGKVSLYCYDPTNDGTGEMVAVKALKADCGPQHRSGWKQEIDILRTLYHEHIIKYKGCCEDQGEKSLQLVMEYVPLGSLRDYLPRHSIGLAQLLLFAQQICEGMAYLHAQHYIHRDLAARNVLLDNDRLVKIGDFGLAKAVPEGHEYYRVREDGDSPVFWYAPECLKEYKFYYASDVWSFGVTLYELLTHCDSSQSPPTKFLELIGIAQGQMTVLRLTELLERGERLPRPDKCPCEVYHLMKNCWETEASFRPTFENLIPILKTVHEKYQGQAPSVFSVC
Procedure, shortened: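 1 µM biotinylated TK peptide at Km ATP in pH 7.0 Hepes, 20-30 min RT. EDTA stop; overnight streptavidin-XL665/cryptate HTRF read.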

[2] = target: T2, JAK1 (Homo sapiens, UniProt P23458); experiment: JAK kinase assay (HTRF, phosphorylation of synthetic peptide), JAK1; settings: catalytic domain, ATP at Km (7 μM); read-out: JAK1 kinase inhibitory activity (EC50)
T2 construct: JAK1 (aa 850-1154) and TYK2 (aa 871-1187) are expressed with an N-terminally fused GST-tag; GST (N); purchased Carna Biosciences, Inc; host or cells: baculovirus expression system
T2 sequence (P23458 850-1154): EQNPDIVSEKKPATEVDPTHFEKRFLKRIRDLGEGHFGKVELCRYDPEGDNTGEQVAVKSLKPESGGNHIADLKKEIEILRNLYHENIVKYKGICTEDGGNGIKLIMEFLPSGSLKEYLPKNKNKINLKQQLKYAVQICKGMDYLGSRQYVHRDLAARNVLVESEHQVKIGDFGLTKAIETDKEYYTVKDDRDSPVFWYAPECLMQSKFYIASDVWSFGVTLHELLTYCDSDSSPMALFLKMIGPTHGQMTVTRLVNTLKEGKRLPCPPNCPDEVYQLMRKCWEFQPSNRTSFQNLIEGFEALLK
Procedure, shortened: (§1)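 Catalytic-domain human JAK1 (GST-tagged, aa 850-1154) or His-tagged JAK2, baculovirus-expressed, phosphorylated 1 µM biotinylated TK peptide at Km ATP (JAK1 7 µM, 10 mM MgCl2, 50 nM SEB; JAK2 4 µM, 5 mM MgCl2) in pH 7.0 Hepes, 20-30 min RT. EDTA stop; overnight streptavidin-XL665/cryptate HTRF read.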

[3] = target: T3, JAK2 (Homo sapiens, UniProt O60674); experiment: JAK kinase assay (HTRF, phosphorylation of synthetic peptide), JAK2; settings: catalytic domain, ATP at Km (4 μM); read-out: JAK2 kinase inhibitory activity (EC50)
T3 construct: All four purified enzymes contain only the catalytic domain; His (N); purchased Carna Biosciences, Inc; host or cells: baculovirus expression system
T3 sequence (O60674 849-1124 limits assumed): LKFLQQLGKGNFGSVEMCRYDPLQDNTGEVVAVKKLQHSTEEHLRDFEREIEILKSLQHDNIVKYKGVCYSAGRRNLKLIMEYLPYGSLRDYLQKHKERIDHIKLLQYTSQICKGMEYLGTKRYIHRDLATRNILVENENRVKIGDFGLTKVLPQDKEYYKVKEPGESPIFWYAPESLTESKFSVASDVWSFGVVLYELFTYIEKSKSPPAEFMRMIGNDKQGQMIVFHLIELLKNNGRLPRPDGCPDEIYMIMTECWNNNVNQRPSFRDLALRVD
Procedure, shortened: as §1

[4] = target: T4, JAK3 (Homo sapiens, UniProt P52333); experiment: JAK kinase assay (HTRF, phosphorylation of synthetic peptide), JAK3; settings: catalytic domain, ATP at Km (2 μM); read-out: JAK3 kinase inhibitory activity (EC50)
T4 construct: All four purified enzymes contain only the catalytic domain; His (N); purchased Carna Biosciences, Inc; host or cells: baculovirus expression system
T4 sequence (P52333 822-1111 limits assumed): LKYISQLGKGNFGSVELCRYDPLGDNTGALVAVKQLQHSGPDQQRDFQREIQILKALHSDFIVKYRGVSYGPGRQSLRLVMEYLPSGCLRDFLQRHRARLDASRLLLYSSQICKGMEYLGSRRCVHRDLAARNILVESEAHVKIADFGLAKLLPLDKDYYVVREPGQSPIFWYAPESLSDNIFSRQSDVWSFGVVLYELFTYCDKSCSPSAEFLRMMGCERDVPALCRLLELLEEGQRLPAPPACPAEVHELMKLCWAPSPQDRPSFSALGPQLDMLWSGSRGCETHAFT

| SMILES | pEC50 [1] | pEC50 [2] | pEC50 [3] | pEC50 [4] |
| --- | --- | --- | --- | --- |
| CC(CN(C)S(=O)(=O)N1CCN(c2ncnc3[nH]ccc23)CC12CC2)c1ccccc1 (stereo not shown) [Example 63, N-methyl-N-(2-phenylpropyl)-5-(7H-pyrrolo[2,3-d]pyrimidin-4-yl)-5,8-diazaspiro[2.5]octane-8-sulfonamide] | 6.30 to 7.00 | > 7.00 | > 7.00 | > 7.00 |
| CN(CC1CCCCO1)S(=O)(=O)N1CCN(c2ncnc3[nH]ccc23)CC12CC2 (stereo not shown) [Example 64, N-methyl-5-(7H-pyrrolo[2,3-d]pyrimidin-4-yl)-N-(tetrahydropyran-2-ylmethyl)-5,8-diazaspiro[2.5]octane-8-sulfonamide] | 6.30 to 7.00 | > 7.00 | > 7.00 | 6.30 to 7.00 |
| CN(C)S(=O)(=O)c1ccc(CN(C)S(=O)(=O)N2CCN(c3ncnc4[nH]ccc34)CC23CC3)o1 [Example 65, N-[[5-(dimethylsulfamoyl)-2-furyl]methyl]-N-methyl-5-(7H-pyrrolo[2,3-d]pyrimidin-4-yl)-5,8-diazaspiro[2.5]octane-8-sulfonamide] | 6.30 to 7.00 | > 7.00 | > 7.00 | 6.30 to 7.00 |
| CN(CCn1cccn1)S(=O)(=O)N1CCN(c2ncnc3[nH]ccc23)CC12CC2 [Example 66, N-methyl-N-(2-pyrazol-1-ylethyl)-5-(7H-pyrrolo[2,3-d]pyrimidin-4-yl)-5,8-diazaspiro[2.5]octane-8-sulfonamide] | 6.30 to 7.00 | > 7.00 | > 7.00 | > 7.00 |
| Cc1cc(CN(C)S(=O)(=O)N2CCN(c3ncnc4[nH]ccc34)CC23CC3)on1 [Example 67, N-methyl-N-[(3-methylisoxazol-5-yl)methyl]-5-(7H-pyrrolo[2,3-d]pyrimidin-4-yl)-5,8-diazaspiro[2.5]octane-8-sulfonamide] | 6.30 to 7.00 | > 7.00 | > 7.00 | > 7.00 |
| CN(Cc1ccno1)S(=O)(=O)N1CCN(c2ncnc3[nH]ccc23)CC12CC2 [Example 68, N-(isoxazol-5-ylmethyl)-N-methyl-5-(7H-pyrrolo[2,3-d]pyrimidin-4-yl)-5,8-diazaspiro[2.5]octane-8-sulfonamide] | 6.30 to 7.00 | > 7.00 | > 7.00 | > 7.00 |
| CN(CCOc1ccc(Cl)cc1)S(=O)(=O)N1CCN(c2ncnc3[nH]ccc23)CC12CC2 [Example 69, N-[2-(4-chlorophenoxy)ethyl]-N-methyl-5-(7H-pyrrolo[2,3-d]pyrimidin-4-yl)-5,8-diazaspiro[2.5]octane-8-sulfonamide] | < 6.30 | > 7.00 | > 7.00 | 6.30 to 7.00 |
| CN(CCOc1ccccc1C#N)S(=O)(=O)N1CCN(c2ncnc3[nH]ccc23)CC12CC2 [Example 70, N-[2-(2-cyanophenoxy)ethyl]-N-methyl-5-(7H-pyrrolo[2,3-d]pyrimidin-4-yl)-5,8-diazaspiro[2.5]octane-8-sulfonamide] | < 6.30 | > 7.00 | > 7.00 | 6.30 to 7.00 |
| CN(CCOc1cccc(C#N)c1)S(=O)(=O)N1CCN(c2ncnc3[nH]ccc23)CC12CC2 [Example 71, N-[2-(3-cyanophenoxy)ethyl]-N-methyl-5-(7H-pyrrolo[2,3-d]pyrimidin-4-yl)-5,8-diazaspiro[2.5]octane-8-sulfonamide] | < 6.30 | > 7.00 | > 7.00 | 6.30 to 7.00 |
| CN(CCOc1ccc(C#N)cc1)S(=O)(=O)N1CCN(c2ncnc3[nH]ccc23)CC12CC2 [Example 72, N-[2-(4-cyanophenoxy)ethyl]-N-methyl-5-(7H-pyrrolo[2,3-d]pyrimidin-4-yl)-5,8-diazaspiro[2.5]octane-8-sulfonamide] | < 6.30 | > 7.00 | > 7.00 | 6.30 to 7.00 |
| CN(CC1CCCC1)S(=O)(=O)N1CCN(c2ncnc3[nH]ccc23)CC12CC2 [Example 73, N-(cyclopentylmethyl)-N-methyl-5-(7H-pyrrolo[2,3-d]pyrimidin-4-yl)-5,8-diazaspiro[2.5]octane-8-sulfonamide] | > 7.00 | > 7.00 | > 7.00 | > 7.00 |
| CN(CCC1CCCC1)S(=O)(=O)N1CCN(c2ncnc3[nH]ccc23)CC12CC2 [Example 74, N-(2-cyclopentylethyl)-N-methyl-5-(7H-pyrrolo[2,3-d]pyrimidin-4-yl)-5,8-diazaspiro[2.5]octane-8-sulfonamide] | 6.30 to 7.00 | > 7.00 | > 7.00 | 6.30 to 7.00 |
| CN(CCC1CCS(=O)(=O)C1)S(=O)(=O)N1CCN(c2ncnc3[nH]ccc23)CC12CC2 (stereo not shown) [Example 75, N-[2-(1,1-dioxothiolan-3-yl)ethyl]-N-methyl-5-(7H-pyrrolo[2,3-d]pyrimidin-4-yl)-5,8-diazaspiro[2.5]octane-8-sulfonamide] | 6.30 to 7.00 | > 7.00 | > 7.00 | > 7.00 |
| CN(CC1CCCS(=O)(=O)C1)S(=O)(=O)N1CCN(c2ncnc3[nH]ccc23)CC12CC2 (stereo not shown) [Example 76, N-[(1,1-dioxothian-3-yl)methyl]-N-methyl-5-(7H-pyrrolo[2,3-d]pyrimidin-4-yl)-5,8-diazaspiro[2.5]octane-8-sulfonamide] | 6.30 to 7.00 | > 7.00 | > 7.00 | > 7.00 |
| CN(Cc1ccccc1F)S(=O)(=O)N1CCN(c2ncnc3[nH]ccc23)CC12CC2 [Example 77, N-[(2-fluorophenyl)methyl]-N-methyl-5-(7H-pyrrolo[2,3-d]pyrimidin-4-yl)-5,8-diazaspiro[2.5]octane-8-sulfonamide] | 6.30 to 7.00 | > 7.00 | > 7.00 | 6.30 to 7.00 |
| CN(Cc1cccc(F)c1)S(=O)(=O)N1CCN(c2ncnc3[nH]ccc23)CC12CC2 [Example 78, N-[(3-fluorophenyl)methyl]-N-methyl-5-(7H-pyrrolo[2,3-d]pyrimidin-4-yl)-5,8-diazaspiro[2.5]octane-8-sulfonamide] | 6.30 to 7.00 | > 7.00 | > 7.00 | > 7.00 |
| CN(Cc1ccc(F)cc1)S(=O)(=O)N1CCN(c2ncnc3[nH]ccc23)CC12CC2 [Example 79, N-[(4-fluorophenyl)methyl]-N-methyl-5-(7H-pyrrolo[2,3-d]pyrimidin-4-yl)-5,8-diazaspiro[2.5]octane-8-sulfonamide] | 6.30 to 7.00 | > 7.00 | > 7.00 | > 7.00 |
| CN(Cc1ccc(OC(F)(F)F)cc1)S(=O)(=O)N1CCN(c2ncnc3[nH]ccc23)CC12CC2 [Example 80, N-methyl-5-(7H-pyrrolo[2,3-d]pyrimidin-4-yl)-N-[[4-(trifluoromethoxy)phenyl]methyl]-5,8-diazaspiro[2.5]octane-8-sulfonamide] | < 6.30 | 6.30 to 7.00 | 6.30 to 7.00 | < 6.30 |
| CN(CCC1CC1)S(=O)(=O)N1CCN(c2ncnc3[nH]ccc23)CC12CC2 [Example 82, N-(2-cyclopropylethyl)-N-methyl-5-(7H-pyrrolo[2,3-d]pyrimidin-4-yl)-5,8-diazaspiro[2.5]octane-8-sulfonamide] | > 7.00 | > 7.00 | > 7.00 | > 7.00 |
| CN(Cc1ccc(S(C)(=O)=O)cc1)S(=O)(=O)N1CCN(c2ncnc3[nH]ccc23)CC12CC2 [Example 83, N-methyl-N-[(4-methylsulfonylphenyl)methyl]-5-(7H-pyrrolo[2,3-d]pyrimidin-4-yl)-5,8-diazaspiro[2.5]octane-8-sulfonamide] | > 7.00 | > 7.00 | > 7.00 | > 7.00 |
| CN(CC1CCC(C(C)(C)C)CC1)S(=O)(=O)N1CCN(c2ncnc3[nH]ccc23)CC12CC2 (stereo not shown) [Example 84, N-[(4-tert-butylcyclohexyl)methyl]-N-methyl-5-(7H-pyrrolo[2,3-d]pyrimidin-4-yl)-5,8-diazaspiro[2.5]octane-8-sulfonamide] | < 6.30 | < 6.30 | < 6.30 | < 6.30 |
| CN(CC1CC(F)(F)C1)S(=O)(=O)N1CCN(c2ncnc3[nH]ccc23)CC12CC2 [Example 85, N-[(3,3-difluorocyclobutyl)methyl]-N-methyl-5-(7H-pyrrolo[2,3-d]pyrimidin-4-yl)-5,8-diazaspiro[2.5]octane-8-sulfonamide] | > 7.00 | > 7.00 | > 7.00 | > 7.00 |
